# Tested on: U23674 (mouse alveolar rhabdomyosarcoma primary culture)
# 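Further: alveolar rhabdomyosarcoma tumor culture.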
row,Structure (SMILES),IC50 cell viability [µM]
1,N#Cc1ccc2c(-c3ccnc(NC4CC4)n3)c(-c3ccc(F)cc3)nn2c1,> 10
2,O=C1Nc2ccc(-c3cccnc3)cc2C1=Cc1cc(Br)c(O)c(Br)c1,> 10
3,NC(=O)c1ccc2c(-c3ccnc(NCCCO)n3)c(-c3ccc(F)cc3)nn2c1,> 10
4,COc1cc(Nc2ncc(-c3ccccc3)o2)cc(OC)c1OC,> 10
5,COc1cc2c(cc1Nc1nc(Nc3ccsc3C(N)=O)c3cc[nH]c3n1)N(C(=O)CN(C)C)CCC2(C)C,0.4
6,CCOc1ccc2c(-c3ccnc(Nc4cccc(C(F)(F)F)c4)n3)cnn2n1,> 10
7,NS(=O)(=O)c1ccc(-c2cc3ccncc3cc2OCc2ccccc2)cc1,> 10
8,Cc1cc(O)cc(C)c1/C=C/c1cncc(-c2nn[nH]n2)c1,> 10
9,CCS(=O)(=O)c1ccc(OC)c(Nc2ncc(-c3cccc(F)c3)o2)c1,> 10
10,OCCCNc1nccc(-c2c(-c3ccc(F)cc3)nn3cc(C(F)(F)F)ccc23)n1,> 10
11,CCn1c(-c2nonc2N)nc2cnc(Oc3cccc(NC(=O)c4ccc(N(C)C)cc4)c3)cc21,> 10
12,O=C(Nc1n[nH]c2nc(-c3ccco3)c(Br)cc12)C1CC1,> 10
13,N#Cc1cccc(Nc2nccc(-c3cnn4ncccc34)n2)c1,0.05
14,CCCN1CCC(c2ccc(Nc3nc(Nc4cc(F)ccc4C(N)=O)c4cc[nH]c4n3)c(OC)c2)CC1,> 10
15,O=S(=O)(CCNCc1ccc(-c2ccc3ncnc(Nc4ccc(OCc5cccc(F)c5)c(Cl)c4)c3c2)o1)c1ccccc1,> 10
16,CN(C)CCOc1ccc(-c2nc(-c3ccncc3)c(-c3ccc4c(c3)CC/C4=N\O)[nH]2)cc1,> 10
17,CS(=O)(=O)Nc1ccc(-c2ccc3c(NC(=O)C4CC4)n[nH]c3c2)cc1,> 10
18,CN1CCN(Cc2ccc(-c3cc4ncnc(Nc5ccc(OCc6cccc(F)c6)c(Cl)c5)c4s3)o2)CC1,> 10
19,COc1cc(N2CCN(C(C)C)CC2)ccc1Nc1nc(Nc2ccc(F)cc2C(=O)NC[C@@H](O)CO)c2cc[nH]c2n1,> 10
20,O=C(Nc1n[nH]c2cc(-c3ccccc3)ccc12)C1CC1,> 10
21,NCc1ccc(-n2c(-c3nonc3N)nc3cnccc32)cc1,3.9
22,Fc1ccc(-c2nn3ccccc3c2-c2ccncc2)cc1,> 10
23,CNC(=O)c1ncccc1Nc1nc(Nc2cc3c(cc2OC)CCCN3C(=O)CN(C)C)nc2[nH]ccc12,> 10
24,COc1cccc(-n2ncc3c(N/N=C/c4cccc(F)c4)ncnc32)c1,> 10

row,Structure (SMILES),IC50 cell viability [µM]
1,COc1ccccc1-c1cc(/C=C2\C(=O)Nc3ncc(Br)cc32)cc(Br)c1O,> 10
2,C[C@@H](Oc1cc(-n2cnc3ccc(OC4CCN(C)CC4)cc32)sc1C(N)=O)c1ccccc1Cl,0.9
3,CN(C)CCOc1ccc(-c2cc(-c3ccc4c(c3)CCC4=NO)c(-c3ccncc3)o2)cc1,> 10
4,Cc1ccc(-c2cc3c(NC(=O)C4CC4)ncnc3o2)cc1,> 10
5,NC(=O)c1ccc(Oc2nccc(-c3c(-c4ccc(F)cc4)ncn3C3CCNCC3)n2)cc1,> 10
6,COC(=O)Nc1nc2ccc(Oc3ccc(NC(=O)Nc4ccccc4)cc3)cc2[nH]1,> 10
7,COc1cccc(Nc2nccc(-c3cnn4ncccc34)n2)c1,0.01
8,COc1cc2ncn(-c3cc(O[C@H](C)c4ccccc4Cl)c(C(N)=O)s3)c2cc1OC,0.1
9,O=C1Nc2ccccc2C1=C1CCc2cc(O)ccc21,> 10
10,NS(=O)(=O)c1ccc(N=Nc2c(O)[nH]c3ccc(C(=O)NCCc4cnc[nH]4)cc23)cc1,> 10
11,Cc1ccc2c(-c3ccnc(Nc4cccc(C(F)(F)F)c4)n3)c(-c3ccccc3)nn2n1,> 10
12,COc1cc(Nc2ncc3c(C)nc(-c4cccc(C(F)(F)F)c4)n3n2)cc(OC)c1OC,> 10
13,COC(=O)c1sc(-n2cnc3cc(OC)c(OC)cc32)cc1OCc1ccccc1C(F)(F)F,> 10
14,O=C(O[C@H]1CN[C@H](C#Cc2cc3ncnc(Nc4ccc(Cc5ccccc5)cc4)c3s2)C1)N1CCOCC1,> 10
15,Cc1cc(Cl)cc2c(N=Nc3ccc(S(N)(=O)=O)cc3)c(O)[nH]c12,> 10
16,C#Cc1cccc(Nc2ncnc3ccc(OCCCCNCCS(C)(=O)=O)cc23)c1,4.9
17,CN1CCC(C(=O)Nc2n[nH]c3nnc(-c4ccccc4)cc23)CC1,> 10
18,Cc1nc(-c2ccccc2)n2nc(NCCCN3CCOCC3)ncc12,> 10
19,COc1cc(N2CCN(C(C)C)CC2)ccc1Nc1nc(Nc2cccc(F)c2C(=O)O)c2cc[nH]c2n1,> 10
20,CCn1c(-c2nonc2N)nc2c(C#CCN)ncc(OCCCN)c21,> 10
21,COc1cc2ncn(-c3cc(OCc4ccccc4C(F)(F)F)c(C(C)=O)s3)c2cc1OC,> 10
22,CCS(=O)(=O)c1ccc(OC)c(Nc2ncc(-c3cccc(-c4ccccc4F)c3)o2)c1,> 10
23,CCn1c(-c2nonc2N)nc2c(C#CC(C)(C)O)nc(CN3CCCC3)cc21,> 10
24,N#Cc1c(NC(=O)c2ccc(F)cc2)sc2c1CCCC2,> 10

row,Structure (SMILES),IC50 cell viability [µM]
1,O=C(OC1CNC(C#Cc2cc3ncnc(Nc4ccc5c(ccn5Cc5cc(F)ccc5F)c4)c3s2)C1)N1CCOCC1 (stereo unspecified),> 10
2,Fc1ccc(-c2ncn(C3CCNCC3)c2-c2ccnc(Oc3ccc(F)c(F)c3)n2)cc1,6.2
3,CCn1c(-c2nonc2N)nc2ccccc21,> 10
4,Cc1c2ccc(N(C)c3ccnc(Nc4cccc(S(N)(=O)=O)c4)n3)cc2nn1C,> 10
5,CS(=O)(=O)CCNCc1ccc(-c2ccc3ncnc(Nc4ccc(OCc5ccccc5)cc4)c3c2)o1,> 10
6,CNC(=O)c1cncc(/C=C/c2ccccc2Cl)c1,> 10
7,c1ccc(COc2ccc(Nc3ncnc4ccc(-c5ccco5)cc34)cc2)cc1,> 10
8,CNC(=O)c1cncc(/C=C/c2ccccc2C)c1,> 10
9,c1cc(-c2cnn3nc(N4CCOCC4)ccc23)nc(NC2CC2)n1,> 10
10,NS(=O)(=O)c1ccc(-c2ccc3c(NC(=O)C4CC4)n[nH]c3c2)cc1,> 10
11,Fc1ccc(-c2ncn(C3CCNCC3)c2-c2ccnc(Oc3ccc4c(c3)OCO4)n2)cc1,> 10
12,FC(F)(F)c1ccc(-c2nn3ncccc3c2-c2ccnc(Nc3ccc4c(c3)OCCO4)n2)cc1,> 10
13,c1ccc(Oc2ccc(Nc3ncc(-c4ccccc4)o3)cc2)cc1,> 10
14,CN1CCC(n2cnc(-c3ccc(F)cc3)c2-c2ccnc(Nc3ccccc3)n2)CC1,> 10
15,CN(c1ccc(NC(=O)Nc2c(Cl)cccc2Cl)cc1)c1ccnc(Nc2cccc(CS(C)(=O)=O)c2)n1,> 10
16,COc1cc(N2CCN(C(C)C)CC2)ccc1Nc1nc(Nc2cccc3ncccc23)c2cc[nH]c2n1,> 10
17,CC(C)c1ccc2c(N=Nc3ccc(S(N)(=O)=O)cc3)c(O)[nH]c2c1,> 10
18,CNC(=O)Oc1cc(C)c(/C=C/c2cncc(C(=O)NC)c2)c(C)c1,> 10
19,NC(=O)c1cc(-c2ccc(F)cc2)cc(-c2ccncc2)c1N,> 10
20,Cc1cc(-c2ccco2)cc(C)c1/C=C/c1cncc(-c2nn[nH]n2)c1,> 10
21,O=C1Nc2ccc(I)cc2C1=Cc1cc(Br)c(O)c(Br)c1,> 10
22,O=C(Nc1n[nH]c2nnc(-c3cccnc3)cc12)C1CC1,> 10
23,O=C(Nc1ccc(Oc2ccc3nc(NC(=O)c4ccccc4)[nH]c3c2)cc1)Nc1cc(C(F)(F)F)ccc1F,> 10
24,Clc1ccc(-c2nn3ncccc3c2-c2ccnc(Nc3ccccc3)n2)cc1,> 10

row,Structure (SMILES),IC50 cell viability [µM]
1,COC(=O)Nc1nc2ccc(Oc3ccc(NC(=O)Nc4cc(C(F)(F)F)ccc4F)cc3)cc2s1,> 10
2,O=C(Nc1ccc(Oc2ccc3nc(NC(=O)c4ccco4)[nH]c3c2)cc1)Nc1cc(C(F)(F)F)ccc1F,> 10
3,COC(=O)c1cncc(/C=C/c2c(C)cc(O)cc2C)c1,> 10
4,Cc1ccc(O)cc1Nc1ccnc2cc(-c3ccccn3)ccc12,> 10
5,CS(=O)(=O)CCNCc1nc(-c2ccc3ncnc(Nc4ccc(F)c(Cl)c4)c3c2)cs1,> 10
6,c1ccc(Cc2nc3ccc(Nc4ncnc5ccccc45)cc3[nH]2)cc1,> 10
7,C[C@@H](Oc1cc(-n2cnc3ccc(OCC4CCN(C)CC4)cc32)sc1C(N)=O)c1ccccc1C(F)(F)F,0.1
8,Cc1ccc(C(=O)NC2CCC2)cc1-c1ccc(C(=O)NCC2CC2)cc1,> 10
9,O=c1[nH]c2ccc(N=Cc3c(O)[nH]c4ccccc34)cc2[nH]1,> 10
10,NS(=O)(=O)c1ccc(N=Nc2c(O)[nH]c3ccc(C(=O)NCc4ccncc4)cc23)cc1,> 10
11,CN(c1ccc(NC(=O)NCCN2CCOCC2)cc1)c1ccnc(Nc2ccc(CS(C)(=O)=O)cc2)n1,> 10
12,COc1ccc(-c2coc3ncnc(N)c23)cc1,> 10
13,CC1=C(C(=O)Nc2ccc3[nH]ncc3c2)C(c2ccc(F)cc2)NC(=O)N1 (stereo unspecified),> 10
14,Cc1ccc(C(=O)NC2CCCCC2)cc1-c1ccc(C(=O)NCC2CC2)cc1,> 10
15,CN(C)CCNC(=O)Nc1ccc(N(C)c2ccnc(Nc3ccc(CS(C)(=O)=O)cc3)n2)cc1,> 10
16,CCNC(=O)O[C@H]1CN[C@H](C#Cc2cc3ncnc(Nc4ccc(OCc5cccc(F)c5)c(Cl)c4)c3s2)C1,> 10
17,CCn1c(-c2nonc2N)nc2c(C#CC(C)(C)O)nc(OCCNC)cc21,1.3
18,c1ccc(-c2nc3n(c2-c2ccc4c(c2)OCO4)CCC3)nc1,> 10
19,NS(=O)(=O)c1ccc(N=Nc2c(O)[nH]c3cccc(CCc4ccncc4)c23)cc1,> 10
20,Cn1c(-c2nonc2N)nc2cnccc21,> 10
21,CC(=O)NCc1cccc(C#Cc2cncnc2Nc2ccc(OCc3cccc(F)c3)c(Cl)c2)c1,> 10
22,O=C1Nc2ccc(C(=O)c3ccco3)cc2/C1=C/c1cc(Cl)c(O)c(Cl)c1,> 10
23,COc1ccc(-c2nn3ncccc3c2-c2ccnc(Nc3cccc(C(F)(F)F)c3)n2)cc1,> 10
24,COc1cc(C)c(NC(=O)CN(C)C)cc1Nc1nc(Nc2cccc(F)c2C(N)=O)c2cc[nH]c2n1,> 10

# From the supplement of paper PMC6580486
